What was measured:
[1] = Solubility of pharmaceutically acceptable salts in water; assay type: physicochemical; settings: distilled deionized water, sonicated 20 min, under 25° C., HPLC
Method: The formulator can determine the solubility of the pharmaceutically acceptable salts of the disclosed inhibitors by any method desirable. The following is a non-limiting example of a procedure for evaluating the solubility of a salt of a disclosed inhibitor. A suspension of tert-butyl-{[1-(4-chlorobenzyl)-3-hydroxy-2-oxo-1,2-dihydropyridin-4-yl]methyl}-piperazine-1-carboxylate methanesulfonate (26.6 mg) in distilled deionized water (3.0 mL) is sonicated for 20 min with water bath temperature under 25° C. The suspension is filtered to remove any insoluble salt. The clear filtrate solution (200 μL) is diluted with distilled deionized water (800 μL) and subjected to HPLC analysis. The following are results for the pharmaceutically acceptable salts outlined in Table VII above.

[2] = target: HIFPH2 (EGLN1) (Homo sapiens (Human), UniProt Q9GZT9); experiment: EGLN-1 Activity Assay (MALDI-TOF MS); assay type: biochemical; settings: recombinant human EGLN-1-179/426, HIF-1α peptide 556-574
Method: The enzyme, quantity predetermined to hydroxylate 20% of substrate in 20 minutes, is added to start the reaction. Where inhibitors are used, compounds are prepared in dimethyl sulfoxide at 10-fold final assay concentration. After 20 minutes at room temperature, the reaction is stopped by transferring 10 μL of reaction mixture to 50 μL of a mass spectrometry matrix solution (α-cyano-4-hydroxycinnamic acid, 5 mg/mL in 50% acetonitrile/0.1% TFA, 5 mM NH4PO4). Two microliters of the mixture is spotted onto a MALDI-TOF MS target plate for analysis with an Applied Biosystems (Foster City, Calif.) 4700 Proteomics Analyzer MALDI-TOF MS equipped with a Nd:YAG laser (355 nm, 3 ns pulse width, 200 Hz repetition rate). Hydroxylated peptide product is identified from substrate by the gain of 16 Da. Data defined as percent conversion of substrate to product is analyzed in GraphPad Prism 4 to calculate IC50 values.

[3] = system: phosphoglycerate kinase (PGK) expression; experiment: PGK expression in murine embryonic fibroblasts; assay type: cell-based; settings: 1 μM, 10 μM, vs wild type control (FIG. 12)
Method: FIG. 11 depicts the up regulation of phosphoglycerate kinase (PGK) expression in wild type murine embryonic fibroblasts as a result of treatment with a compound disclosed in Table VIII at dosages of 1 μM (E), 10 μM (F), and 50 μM (G) vs. wild type control (H) and the lack of up regulation of PGK expression in HIF-1 knock out cells as a result of treatment with a compound disclosed in Table VIII at dosages of 1 μM (A), 10 μM (B), and 50 μM (C) and HIF-1 knock out control (D). Both cell types were treated for 7 hours.

Chain of HIFPH2 (EGLN1) (Q9GZT9 179-426): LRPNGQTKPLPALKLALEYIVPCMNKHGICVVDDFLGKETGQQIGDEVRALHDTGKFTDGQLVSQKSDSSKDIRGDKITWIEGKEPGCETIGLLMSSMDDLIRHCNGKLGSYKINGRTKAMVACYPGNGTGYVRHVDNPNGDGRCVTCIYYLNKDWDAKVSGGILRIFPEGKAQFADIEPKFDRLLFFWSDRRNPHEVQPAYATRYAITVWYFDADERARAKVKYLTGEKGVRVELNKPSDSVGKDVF

| Structure (SMILES) | Solubility [1] [µg/mL] | IC50 [2] [µM] | also measured |
| --- | --- | --- | --- |
| CC(C)(C)OC(=O)N1CCN(Cc2ccn(Cc3ccc(Cl)cc3)c(=O)c2O)CC1 [Compound A41] | ~1 |  |  |
| O=c1c(O)c(CN2CCN(Cc3ccccc3)CC2)ccn1Cc1ccccc1 [Compound B9, 1-benzyl-3-hydroxy-4-[(4-benzylpiperazin-1-yl)methyl]pyridin-2(1H)-one] |  | 17 |  |
| O=c1c(O)c(CNCc2ccccc2)ccn1Cc1ccc(Cl)cc1 [Compound C1, 1-(4-chlorobenzyl)-3-hydroxy-4-[(4-benzylamino)methyl]pyridin-2(1H)-one] |  | 12 |  |
| O=c1c(O)cccn1Cc1cccc(Cl)c1 [Compound F2, 1-(3-chlorobenzyl)-3-hydroxypyridin-2(1H)-one] |  |  | PGK expression in wild type murine embryonic fibroblasts [3]: up regulation |
| CC(C)(C)OC(=O)N1CCN(Cc2ccn(Cc3ccc(Cl)cc3)c(=O)c2O)CC1.CS(=O)(=O)O [methanesulfonate, tert-butyl-{[1-(4-chlorobenzyl)-3-hydroxy-2-oxo-1,2-dihydropyridin-4-yl]methyl}-piperazine-1-carboxylate methanesulfonate] | 16600 |  |  |

From US8778412B2, “Methods for increasing the stabilization of hypoxia inducible factor-1 alpha” (Aerpio Therapeutics Inc., priority 2009, dated 2014)
